The subject of assay [1] is ALOMY. Briefly: Pre-emergence action against ALOMY, 1280 g/ha. As to conditions: visual scoring after about 3 weeks vs untreated controls, 100% = plants have died, 0% = like control plants. It is filed as in vivo, Alopecurus myosuroides. The essentials:
(§1)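 Greenhouse pre-emergence test on sown seeds in sandy loam; soil-surface spray of formulated compound with 0.5% additive at 600 L/ha water. Scored visually, % vs untreated, after about 3 weeks.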

Assay [2] concerns DIGSA. Briefly: Pre-emergence action against DIGSA, 1280 g/ha. It is filed as in vivo, Digitaria sanguinalis. As to conditions: visual scoring after about 3 weeks vs untreated controls, 100% = plants have died, 0% = like control plants. The essentials: as §1
Assay [3] relates to LOLRI. Briefly: Pre-emergence action against LOLRI, 1280 g/ha. It is filed as in vivo, Lolium rigidum. As to conditions: visual scoring after about 3 weeks vs untreated controls, 100% = plants have died, 0% = like control plants. The essentials:
as §1

Assay [4] relates to POAAN. Briefly: Pre-emergence action against POAAN, 1280 g/ha. It is filed as in vivo, Poa annua. The following applies: visual scoring after about 3 weeks vs untreated controls, 100% = plants have died, 0% = like control plants. A digest of the protocol: as §1
Assay [5] has as its system SETVI. Description: Pre-emergence action against SETVI, 1280 g/ha. The following applies: visual scoring after about 3 weeks vs untreated controls, 100% = plants have died, 0% = like control plants. It is filed as in vivo, Setaria viridis. A digest of the protocol:
as §1

The test system of assay [6] is ABUTH. Description: Pre-emergence action against ABUTH, 1280 g/ha. It is filed as in vivo, Abutilon theophrasti. The following applies: scored visually after about 3 weeks vs untreated controls (100% = plants have died). The text has this:
1. Pre-Emergence Herbicidal Effect and Crop Plant Compatibility a) Seeds of mono- and dicotyledonous weed plants are placed in plastic pots in sandy loam soil (doubly sown with one species each of mono- or dicotyledonous weed plants per pot) and covered with soil. The compounds of the invention, formulated in the form of wettable powders (WP) or as emulsion concentrates (EC), are then applied onto the surface of the covering soil as aqueous suspension or emulsion with addition of 0.5% additive at a water application rate equivalent to 600 litres per hectare. After the treatment, the pots are placed in a greenhouse and kept under good growth conditions for the trial plants. After about 3 weeks, the effect of the preparations is scored visually in comparison with untreated controls as percentages. For example, 100% activity=the plants have died, 0% activity=like control plants. 1. Pre-Emergence Effectiveness Tables 1 to 12 below show the effects of selected compounds of the general formula (I) according to Tables 1 and 2 on various harmful plants and at an application rate corresponding to 1280 g/ha, which were obtained by the experimental procedure mentioned above.

For assay [7], the system named is AMARE. Description: Pre-emergence action against AMARE, 1280 g/ha. It is filed as in vivo, Amaranthus retroflexus. The following applies: scored visually after about 3 weeks vs untreated controls (100% = plants have died). The essentials: as §1
Assay [8] concerns MATIN. Description: Pre-emergence action against MATIN, 1280 g/ha. It is filed as in vivo, Tripleurospermum inodorum (Matricaria inodora). As to conditions: scored visually after about 3 weeks vs untreated controls (100% = plants have died). A digest of the protocol:
as §1

In assay [9] the test system is STEME. Briefly: Pre-emergence action against STEME, 1280 g/ha. The following applies: scored visually after about 3 weeks vs untreated controls (100% = plants have died). It is filed as in vivo, Stellaria media. The essentials: as §1
The test system of assay [10] is VERPE. Description: Pre-emergence action against VERPE, 1280 g/ha. It is filed as in vivo, Veronica persica. The following applies: scored visually after about 3 weeks vs untreated controls (100% = plants have died). The essentials:
as §1

In assay [11] the test system is ALOMY. Briefly: Post-emergence action against ALOMY, 1.28 kg/ha. It is filed as in vivo, Alopecurus myosuroides. The following applies: dosage 1280 g/ha, visual rating about 3 weeks after treatment vs untreated controls. A digest of the protocol: (§2)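 Visual rating against untreated plants about 3 weeks after spraying gives % activity, where 0% means like controls and 100% means plants died. Plants were treated post-emergence at the one-leaf stage with compound formulated as wettable powder or emulsion concentrate, applied at 600 L water/ha plus 0.5% additive.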

In assay [12] the test system is DIGSA. Briefly: Post-emergence action against DIGSA, 1.28 kg/ha. As to conditions: dosage 1280 g/ha, visual rating about 3 weeks after treatment vs untreated controls. It is filed as in vivo, Digitaria sanguinalis. A digest of the protocol:
as §2

Assay [13] relates to LOLRI. Briefly: Post-emergence action against LOLRI, 1.28 kg/ha. It is filed as in vivo, Lolium rigidum. The following applies: dosage 1280 g/ha, visual rating about 3 weeks after treatment vs untreated controls. The essentials: as §2
For assay [14], the system named is POAAN. Briefly: Post-emergence action against POAAN, 1.28 kg/ha. As to conditions: dosage 1280 g/ha, visual rating about 3 weeks after treatment vs untreated controls. It is filed as in vivo, Poa annua. The essentials: as §2
The subject of assay [15] is AMARE. Description: Post-emergence action against AMARE, 1.28 kg/ha. It is filed as in vivo, Amaranthus retroflexus. The following applies: dosage 1280 g/ha, visual rating about 3 weeks after treatment vs untreated controls (100% = plants died). A digest of the protocol: as §2
Assay [16] has as its system MATIN. Description: Post-emergence action against MATIN, 1.28 kg/ha. It is filed as in vivo, Tripleurospermum inodorum (Matricaria inodora). As to conditions: dosage 1280 g/ha, visual rating about 3 weeks after treatment vs untreated controls (100% = plants died). The essentials: as §2
Assay [17] relates to VERPE. Description: Post-emergence action against VERPE, 1.28 kg/ha. It is filed as in vivo, Veronica persica. As to conditions: dosage 1280 g/ha, visual rating about 3 weeks after treatment vs untreated controls (100% = plants died). A digest of the protocol: as §2
Assay [18] deals with ECHCG. Briefly: Pre-emergence action against ECHCG, 1280 g/ha. It is filed as in vivo, Echinochloa crus-galli. As to conditions: visual scoring after about 3 weeks vs untreated controls, 100% = plants have died, 0% = like control plants. The essentials:
as §1

For assay [19], the system named is ECHCG. Description: Post-emergence action against ECHCG, 1.28 kg/ha. It is filed as in vivo, Echinochloa crus-galli. As to conditions: dosage 1280 g/ha, visual rating about 3 weeks after treatment vs untreated controls. A digest of the protocol: as §2
Assay [20] deals with SETVI. Briefly: Post-emergence action against SETVI, 1.28 kg/ha. It is filed as in vivo, Setaria viridis. The following applies: dosage 1280 g/ha, visual rating about 3 weeks after treatment vs untreated controls. A digest of the protocol:
as §2

Assay [21] deals with ABUTH. Description: Post-emergence action against ABUTH, 1.28 kg/ha. It is filed as in vivo, Abutilon theophrasti. As to conditions: dosage 1280 g/ha, visual rating about 3 weeks after treatment vs untreated controls (100% = plants died). A digest of the protocol: as §2
A further assay has as its system KCHSC. Briefly: Post-emergence action against KCHSC, 1.28 kg/ha. As to conditions: dosage 1280 g/ha, visual rating about 3 weeks after treatment vs untreated controls (100% = plants died). It is filed as in vivo, Bassia scoparia. A digest of the protocol:
as §2

Assay [22] concerns STEME. Description: Post-emergence action against STEME, 1.28 kg/ha. It is filed as in vivo, Stellaria media. As to conditions: dosage 1280 g/ha, visual rating about 3 weeks after treatment vs untreated controls (100% = plants died). A digest of the protocol:
as §2

The record followed here is patent US12180187B2, “1-phenyl-5-azinylpyrazolyl-3-oxyalkyl acids and their use for controlling unwanted plant growth” (BAYER AKTIENGESELLSCHAFT, priority 2019, dated 2024).

SMILES strings stand for the structures.

Consider `COC(=O)[C@@H](C)Oc1nn(-c2ccccc2F)c(-c2cnc(F)c(F)c2)c1Br` [VII-149], for which the “Pre-emergence action against ALOMY” value in the assay with ALOMY [1] turned out to be 100%. Besides, in the assay with DIGSA [2], the “Pre-emergence action against DIGSA” value is 100%. For the same compound, the “Pre-emergence action against LOLRI” value in the assay with LOLRI [3] was found to be 100%. Moreover, the “Pre-emergence action against POAAN” value in the assay on POAAN [4] stood at 100%. Further, in the assay on SETVI [5], the “Pre-emergence action against SETVI” value turned out to be 90%. In addition, the “Pre-emergence action against ABUTH” value with ABUTH [6] is on record as 90%. In the assay with AMARE [7], the “Pre-emergence action against AMARE” value amounted to 100%. In addition, the “Pre-emergence action against MATIN” value with MATIN [8] turned out to be 90%. Also, in the assay on STEME [9], the “Pre-emergence action against STEME” value is 100%. Moreover, the “Pre-emergence action against VERPE” value with VERPE [10] amounted to 100%. In addition, the “Post-emergence action against ALOMY” value in the assay with ALOMY [11] stood at 100%. For the same compound, the “Post-emergence action against DIGSA” value in the assay on DIGSA [12] came to 100%. Besides, the “Post-emergence action against LOLRI” value with LOLRI [13] was 100%. Besides, the “Post-emergence action against POAAN” value with POAAN [14] worked out at 100%. Besides, the “Post-emergence action against AMARE” value in the assay with AMARE [15] was 100%. In addition, the “Post-emergence action against MATIN” value with MATIN [16] is 100%. Besides, the “Post-emergence action against VERPE” value with VERPE [17] is 90%.
Regarding `O=C(O)COc1nn(-c2ccccc2F)c(-c2ccc(F)nc2)c1Br` [VI-003], the “Pre-emergence action against ALOMY” value with ALOMY [1] turned out to be 90%. Besides, the “Pre-emergence action against DIGSA” value in the assay with DIGSA [2] is 100%. For the same compound, the “Pre-emergence action against ECHCG” value in the assay with ECHCG [18] is given as 100%. Moreover, the “Pre-emergence action against LOLRI” value in the assay with LOLRI [3] came out at 90%. In addition, in the assay with POAAN [4], the “Pre-emergence action against POAAN” value came to 100%. In addition, in the assay with SETVI [5], the “Pre-emergence action against SETVI” value was found to be 100%. In the assay with ABUTH [6], the “Pre-emergence action against ABUTH” value stood at 90%. Also, in the assay on AMARE [7], the “Pre-emergence action against AMARE” value is 100%. Besides, in the assay with MATIN [8], the “Pre-emergence action against MATIN” value amounted to 100%. For the same compound, in the assay on STEME [9], the “Pre-emergence action against STEME” value amounted to 90%. In addition, in the assay with VERPE [10], the “Pre-emergence action against VERPE” value came out at 100%. Also, in the assay with DIGSA [12], the “Post-emergence action against DIGSA” value came out at 100%. In the assay on ECHCG [19], the “Post-emergence action against ECHCG” value worked out at 100%. In addition, the “Post-emergence action against POAAN” value with POAAN [14] was found to be 100%. Besides, the “Post-emergence action against SETVI” value in the assay on SETVI [20] is 100%. The “Post-emergence action against ABUTH” value in the assay with ABUTH [21] is 90%. Besides, in the assay with AMARE [15], the “Post-emergence action against AMARE” value was 90%. In the assay on KCHSC, the “Post-emergence action against KCHSC” value came to 90%. Also, in the assay with MATIN [16], the “Post-emergence action against MATIN” value is recorded as 100%. In addition, the “Post-emergence action against VERPE” value in the assay on VERPE [17] is listed as 90%.
As for `COC(=O)COc1nn(-c2c(F)cccc2F)c(-c2ccc(F)nc2)c1Br` [VII-109], in the assay with ALOMY [1], the “Pre-emergence action against ALOMY” value is 100%. For the same compound, the “Pre-emergence action against DIGSA” value in the assay on DIGSA [2] amounted to 100%. The “Pre-emergence action against ECHCG” value with ECHCG [18] is 100%. Further, in the assay with LOLRI [3], the “Pre-emergence action against LOLRI” value worked out at 100%. The “Pre-emergence action against POAAN” value with POAAN [4] was found to be 100%. For the same compound, in the assay on SETVI [5], the “Pre-emergence action against SETVI” value came out at 100%. The “Pre-emergence action against ABUTH” value with ABUTH [6] turned out to be 90%. In addition, the “Pre-emergence action against AMARE” value with AMARE [7] came out at 100%. For the same compound, the “Pre-emergence action against MATIN” value in the assay with MATIN [8] was 100%. Also, the “Pre-emergence action against STEME” value with STEME [9] stood at 100%. Besides, in the assay on VERPE [10], the “Pre-emergence action against VERPE” value is reported as 100%. In the assay with ALOMY [11], the “Post-emergence action against ALOMY” value is listed as 100%. Also, the “Post-emergence action against DIGSA” value in the assay with DIGSA [12] was found to be 100%. Besides, in the assay with ECHCG [19], the “Post-emergence action against ECHCG” value came to 100%. The “Post-emergence action against LOLRI” value in the assay on LOLRI [13] is recorded as 100%. The “Post-emergence action against POAAN” value with POAAN [14] was determined as 100%. The “Post-emergence action against SETVI” value with SETVI [20] came out at 100%. Further, the “Post-emergence action against ABUTH” value with ABUTH [21] amounted to 100%. In the assay with AMARE [15], the “Post-emergence action against AMARE” value is listed as 100%. Further, the “Post-emergence action against KCHSC” value with KCHSC is reported as 90%. Besides, in the assay on MATIN [16], the “Post-emergence action against MATIN” value was found to be 100%. In the assay on STEME [22], the “Post-emergence action against STEME” value was 100%. Moreover, the “Post-emergence action against VERPE” value in the assay on VERPE [17] turned out to be 100%.
